From patent US12692261B2, “Substituted heterocyclic compounds and therapeutic uses thereof” (Bayer Aktiengesellschaft, priority 2020, dated 2026)

What was measured:
[1] = target: T1, full-length human CSNK1A1 (Homo sapiens, UniProt P48729); assay: CSNK1A1 High ATP Assay (ADP-Glo, 1 mM ATP); type: biochemical; conditions: Table 3, read-out: CSNK1A1 high ATP assay IC50 [mol/l] (median);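 further: 30 min kinase reaction at 22 °C with 100 µM peptide substrate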
T1 construct: N-terminal Glutathion-S-Transferase (GST) and full-length human CSNK1A1; purchased Life Technologies PV4174; host or cells: baculovirus infected insect cells
Experimental: CSNK1A1-inhibitory activity of compounds of the present invention in presence of 1 mM adenosine-tri-phosphate (ATP) was quantified employing the CSNK1A1-high-ATP-assay as described in the following paragraphs. In essence, the enzyme activity is measured by quantification of the adenosine-di-phosphate (ADP), which is generated as a co-product of the enzyme reaction, via the “ADP-Glo™ Kinase Assay” kit from the company Promega. This detection system works as follows: In a first step the ATP not consumed in the kinase reaction is quantitatively converted to cAMP employing an adenylate cyclase (“ADP-Glo-reagent”), then the adenylate cyclase is stopped and the ADP generated in the kinase reaction converted to ATP which generates in a luciferase-based reaction a glow-luminescence signal (“Kinase Detection Reagent”).
Recombinant fusion protein of N-terminal Glutathion-S-Transferase (GST) and full-length human CSNK1A1, expressed by baculovirus infected insect cells and purified via Glutathion affinity chromatography, was purchased from Life Technologies (product no. PV4174) and used as enzyme. As substrate for the kinase reaction the biotinylated peptide biotin-Ahx-KRRRAL-pS-VASLPGL (C-terminus in amide form) was used which can be purchased e.g. from the company Biosyntan (Berlin-Buch, Germany).
For the assay 50 nl of a 100 fold concentrated solution of the test compound in DMSO was pipetted into a white low volume 384-well microtiter plate (Greiner Bio-One, Frickenhausen, Germany), 2 μL of a solution of CSNK1A1 in aqueous assay buffer [50 mM HEPES pH 7.5, 10% (v/v) glycerol, 10 mM MgCl2, 50 mM NaCl, 1 mM dithiothreitol, 0.01% (w/v) bovine serum albumin, 0.01% (v/v) Triton X-100] were added and the mixture was incubated for 15 min at 22° C. to allow pre-binding of the test compounds to the enzyme before the start of the kinase reaction. […] The concentration of CSNK1A1 was adjusted depending of the activity of the enzyme lot and was chosen appropriate to have the assay in the linear range, a typical concentration is about 0.4 ng/μL. The reaction was stopped by the addition of 2.5 μL of “ADP-Glo-reagent” (1:1.5 fold diluted with water) and the resulting mixture was incubated at 22° C. for 1 h to convert the ATP not consumed in the kinase reaction completely […]. Subsequently 2.5 μL of the “kinase detection reagent” (1.2 fold more concentrated than recommended by the producer) were added, the resulting mixture was incubated at 22° C. for 1 h and then the luminescence measured with a suitable measurement instrument (e.g. Viewlux™ from Perkin-Elmer). The amount of emitted light was taken as a measure for the amount of ADP generated and thereby for the activity of the CSNK1A1.

[2] = target: T2, wild-type Epidermal Growth Factor Receptor (EGFR) (Homo sapiens, UniProt P00533); assay: WT-EGFR Kinase Assay (TR-FRET, 2 mM ATP); type: biochemical; conditions: EGFR Wildtyp 2 mM ATP IC50 [mol/l] (median), Table 4
T2 construct: a fragment of human EGFR (amino acids R669 to A1210); made in house; host or cells: Sf9 insect cells
Text: Inhibitory activity of compounds of the present invention against wild-type Epidermal Growth Factor Receptor (EGFR) was quantified employing the TR-FRET based EGFR assay as described in the following paragraphs.
Recombinant fusion protein of N-terminal Glutathion-S-Transferase (GST) and a fragment of human EGFR (amino acids R669 to A1210), expressed in Sf9 insect cells and purified via affinity chromatography using Glutathion Sepharose as described above, was used as kinase. As substrate for the kinase reaction the biotinylated peptide biotin-Ahx-[…] (C-terminus in amide form) was used which can be purchased e.g. form the company Biosynthan GmbH (Berlin-Buch, Germany).
For the assay 50 nl of a 100 fold concentrated solution of the test compound in DMSO was pipetted into either a black low volume 384 well microtiter plate or a black 1536 well microtiter plate (both Greiner Bio-One, Frickenhausen, Germany), 2 μL of a solution of EGFR in aqueous assay buffer [50 mM Hepes pH 7.0, 10 mM MgCl2, 1 mM dithiothreitol, 0.5 mM EGTA, 0.3 mM activated sodium ortho-vanadate, 0.005% (w/v) bovine serum albumin, 0.005% (v/v) Tween-20] were added and the mixture was incubated for 15 min at 22° C. to allow pre-binding of the test compounds to the enzyme before the start of the kinase reaction. […] The concentration of EGFR was adjusted depending of the activity of the enzyme lot and was chosen appropriate to have the assay in the linear range, typical concentration was 7.6 pg/μL. The reaction was stopped by the addition of 3 μL of a solution of HTRF detection reagents (83.3 nM streptavidine-XL665 [Cisbio Bioassays, Codolet, France] and 1.67 nM PT66-Tb-Cryptate, a terbium-cryptate labelled anti-phospho-tyrosine antibody from Cisbio Bioassays [instead of the PT66-Tb-cryptate PT66-Eu-Chelate from Perkin Elmer can also be used]) in an aqueous EDTA-solution (133.3 mM EDTA, 0.2% (w/v) bovine serum albumin in 50 mM HEPES pH 7.5).
The resulting mixture was incubated 1 h at 22° C. to allow the binding of the biotinylated phosphorylated peptide to the streptavidine-XL665 and the PT66-Tb-Cryptate. Subsequently the amount of phosphorylated substrate was evaluated by measurement of the resonance energy transfer from the PT66-Tb-Cryptate to the streptavidine-XL665. Therefore, the fluorescence emissions at 620 nm and 665 nm after excitation at 337 nm were measured in a HTRF reader, e.g. a Pherastar (BMG Labtechnologies, Offenburg, Germany) or a Viewlux (Perkin-Elmer). The ratio of the emissions at 665 nm and at 622 nm was taken as the measure for the amount of phosphorylated substrate.

T1 sequence (P48729 whole entry): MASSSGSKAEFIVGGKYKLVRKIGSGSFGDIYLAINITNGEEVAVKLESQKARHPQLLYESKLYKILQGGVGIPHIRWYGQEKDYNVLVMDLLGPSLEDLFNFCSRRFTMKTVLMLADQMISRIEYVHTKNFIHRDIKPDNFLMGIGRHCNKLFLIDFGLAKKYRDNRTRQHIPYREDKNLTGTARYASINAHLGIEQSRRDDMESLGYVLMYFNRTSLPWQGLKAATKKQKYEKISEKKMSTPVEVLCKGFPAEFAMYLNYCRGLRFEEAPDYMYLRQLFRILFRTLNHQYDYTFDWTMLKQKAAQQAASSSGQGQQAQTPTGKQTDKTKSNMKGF
T2 sequence (P00533 669-1210): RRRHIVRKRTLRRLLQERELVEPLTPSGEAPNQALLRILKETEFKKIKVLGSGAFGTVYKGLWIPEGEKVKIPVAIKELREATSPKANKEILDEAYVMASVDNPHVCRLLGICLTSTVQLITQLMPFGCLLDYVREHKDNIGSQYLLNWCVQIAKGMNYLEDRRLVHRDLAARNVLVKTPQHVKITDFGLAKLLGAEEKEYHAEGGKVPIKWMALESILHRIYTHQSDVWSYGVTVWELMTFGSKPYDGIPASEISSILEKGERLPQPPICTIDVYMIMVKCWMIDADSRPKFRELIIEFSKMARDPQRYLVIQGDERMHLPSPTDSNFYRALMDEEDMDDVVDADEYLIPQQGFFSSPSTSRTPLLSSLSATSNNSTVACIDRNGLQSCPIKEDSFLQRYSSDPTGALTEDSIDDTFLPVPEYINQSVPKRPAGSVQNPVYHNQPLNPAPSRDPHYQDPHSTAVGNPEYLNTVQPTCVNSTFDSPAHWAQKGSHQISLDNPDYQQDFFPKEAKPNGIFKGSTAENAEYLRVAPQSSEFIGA

| Structure (SMILES) | IC50 [1] [µM] | IC50 [2] [µM] |
| --- | --- | --- |
| O=C(Nc1cc(-c2[nH]c3c(OC[C@H]4COCCO4)cc(F)nc3c2-c2ccccn2)ccn1)C(CC(F)F)c1ccc(F)cc1 (mixture of isomers) [Example 50, (2RS)—N-{4-[7-{[(2R)-1,4-dioxan-2-yl]methoxy}-5-fluoro-3-(pyridin-2-yl)-1H-pyrrolo[3,2-b]pyridin-2-yl]pyridin-2-yl}-4,4-difluoro-2-(4-fluorophenyl)butanamide] | 0.00934 | > 20 |
| Cc1ccc2[nH]c(-c3ccnc(NC(=O)C(CC(F)F)c4ccc(F)cc4)c3)c(-c3ccccn3)c2n1 (racemic) [Example 4, 4,4-difluoro-2-(4-fluorophenyl)-N-{4-[5-methyl-3-(pyridin-2-yl)-1H-pyrrolo[3,2-b]pyridin-2-yl]pyridin-2-yl}butanamide] | 0.158 | > 20 |
| Cc1cnc2c(-c3ccccn3)c(-c3ccnc(NC(=O)C(CC(F)F)c4ccc(F)cc4)c3)[nH]c2c1 (racemic) [Example 7, 4,4-difluoro-2-(4-fluorophenyl)-N-{4-[6-methyl-3-(pyridin-2-yl)-1H-pyrrolo[3,2-b]pyridin-2-yl]pyridin-2-yl}butanamide] | 0.00812 | > 20 |
| O=C(Nc1cc(-c2[nH]c3cccnc3c2-c2ccccn2)ccn1)C(CC(F)F)c1ccc(F)cc1 (racemic) [Example 10, 4,4-difluoro-2-(4-fluorophenyl)-N-{4-[3-(pyridin-2-yl)-1H-pyrrolo[3,2-b]pyridin-2-yl]pyridin-2-yl}butanamide] | 0.00988 | > 20 |
| O=C(Nc1cc(-c2[nH]c3cncnc3c2-c2ccccn2)ccn1)C(CC(F)F)c1ccc(F)cc1 (racemic) [Example 13, 4,4-difluoro-2-(4-fluorophenyl)-N-{4-[7-(pyridin-2-yl)-5H-pyrrolo[3,2-d]pyrimidin-6-yl]pyridin-2-yl}butanamide] | 0.24 | > 20 |
| O=C(Nc1cc(-c2[nH]c3cc(F)cnc3c2-c2ccccn2)ccn1)C(CC(F)F)c1ccc(F)cc1 (racemic) [Example 16, 4,4-difluoro-2-(4-fluorophenyl)-N-{4-[6-fluoro-3-(pyridin-2-yl)-1H-pyrrolo[3,2-b]pyridin-2-yl]pyridin-2-yl}butanamide] | 0.0219 | > 20 |
| O=C(Nc1cc(-c2[nH]c3cc(F)cnc3c2-c2ccccc2)ccn1)C(CC(F)F)c1ccc(F)cc1 (racemic) [Example 19, 4,4-difluoro-2-(4-fluorophenyl)-N-[4-(6-fluoro-3-phenyl-1H-pyrrolo[3,2-b]pyridin-2-yl)pyridin-2-yl]butanamide] | 0.602 | > 20 |
| O=C(Nc1cc(-c2[nH]c3cccnc3c2-c2ccccc2)ccn1)C(CC(F)F)c1ccc(F)cc1 (racemic) [Example 22, 4,4-difluoro-2-(4-fluorophenyl)-N-[4-(3-phenyl-1H-pyrrolo[3,2-b]pyridin-2-yl)pyridin-2-yl]butanamide] | 0.0904 | > 20 |
| O=C(Nc1cc(-c2[nH]c3cccnc3c2-c2cccc(F)n2)ccn1)C(CC(F)F)c1ccc(F)cc1 (racemic) [Example 25, 4,4-difluoro-2-(4-fluorophenyl)-N-{4-[3-(6-fluoropyridin-2-yl)-1H-pyrrolo[3,2-b]pyridin-2-yl]pyridin-2-yl}butanamide] | 0.0186 | > 20 |
| O=C(Nc1cc(-c2[nH]c3c(OCC(F)F)cc(F)nc3c2-c2ccccn2)ccn1)C(CC(F)F)c1ccc(F)cc1 (racemic) [Example 28, (2RS)—N-{4-[7-(2,2-difluoroethoxy)-5-fluoro-3-(pyridin-2-yl)-1H-pyrrolo[3,2-b]pyridin-2-yl]pyridin-2-yl}-4,4-difluoro-2-(4-fluorophenyl)butanamide] | 0.00395 | > 20 |
| O=C(Nc1cc(-c2[nH]c3nccnc3c2-c2ccccn2)ccn1)C(CC(F)F)c1ccc(F)cc1 (racemic) [Example 31, (2RS)-4,4-difluoro-2-(4-fluorophenyl)-N-{4-[7-(pyridin-2-yl)-5H-pyrrolo[2,3-b]pyrazin-6-yl]pyridin-2-yl}butanamide] | 0.00304 | > 20 |
| Cc1cc2[nH]c(-c3ccnc(NC(=O)C(CC(F)F)c4ccc(F)cc4)c3)c(-c3ccccn3)c2nc1F (racemic) [Example 33, (rac)-4,4-difluoro-N-{4-[5-fluoro-6-methyl-3-(pyridin-2-yl)-1H-pyrrolo[3,2-b]pyridin-2-yl]pyridin-2-yl}-2-(4-fluorophenyl)butanamide] | 0.0195 | > 20 |
| Cc1cc(F)nc2c(-c3ccccn3)c(-c3ccnc(NC(=O)C(CC(F)F)c4ccc(F)cc4)c3)[nH]c12 (racemic) [Example 36, (rac)-4,4-difluoro-N-{4-[5-fluoro-7-methyl-3-(pyridin-2-yl)-1H-pyrrolo[3,2-b]pyridin-2-yl]pyridin-2-yl}-2-(4-fluorophenyl)butanamide] | 0.0214 | > 20 |
| COc1cc(F)nc2c(-c3ccccn3)c(-c3ccnc(NC(=O)C(CC(F)F)c4ccc(F)cc4)c3)[nH]c12 (racemic) [Example 39, (rac)-4,4-difluoro-N-{4-[5-fluoro-7-methoxy-3-(pyridin-2-yl)-1H-pyrrolo[3,2-b]pyridin-2-yl]pyridin-2-yl}-2-(4-fluorophenyl)butanamide] | 0.019 | > 20 |
| O=C(Nc1cc(-c2[nH]c3c(OC4CC4)cc(F)nc3c2-c2ccccn2)ccn1)C(CC(F)F)c1ccc(F)cc1 (racemic) [Example 42, (rac)-N-{4-[7-(cyclopropyloxy)-5-fluoro-3-(pyridin-2-yl)-1H-pyrrolo[3,2-b]pyridin-2-yl]pyridin-2-yl}-4,4-difluoro-2-(4-fluorophenyl)butanamide] | 0.00822 | > 20 |
| O=C(Nc1cc(-c2[nH]c3c(CC4CC4)cc(F)nc3c2-c2ccccn2)ccn1)C(CC(F)F)c1ccc(F)cc1 (racemic) [Example 46, (2RS)—N-{4-[7-(cyclopropylmethyl)-5-fluoro-3-(pyridin-2-yl)-1H-pyrrolo[3,2-b]pyridin-2-yl]pyridin-2-yl}-4,4-difluoro-2-(4-fluorophenyl)butanamide] | 0.0232 | > 20 |
